Laboratory results from US12364703B2, “Homogeneous ophthalmic composition” (priority 2015, dated 2025).
Structures can show the parent of a compound that is named as a salt.

Assay: LCMS and standard curve analysis of the concentration of each active ingredient in solution
Assay type: physicochemical
Conditions: three samples of solutions containing the three active ingredients; LCMS, standard curve
Protocol: Separate stock solutions of moxifloxacin HCI, dexamethasone, and sodium bromfenac were used as standards. Three different samples of solutions containing the three active ingredients, i.e., moxifloxacin HCI, dexamethasone, and sodium bromfenac were analyzed for the concentration of moxifloxacin in solution, the concentration of dexamethasone in solution, and the concentration of sodium bromfenac in solution.

| Structure (SMILES) | Concentration in Solution [µg/mL] |
| --- | --- |
| COc1c(N2C[C@@H]3CCCN[C@@H]3C2)c(F)cc2c(=O)c(C(=O)O)cn(C3CC3)c12 [moxifloxacin HCI, moxifloxacin hydrochloride] | 5458 |
| Nc1c(CC(=O)O)cccc1C(=O)c1ccc(Br)cc1 [bromfenac sodium] | 40.5 |
